In ChEMBL document CHEMBL1138261, “Probing binding requirements of type I and type II isoforms of inosine monophosphate dehydrogenase with adenine-modified nicotinamide adenine dinucleotide analogues” (J Med Chem, 2007):

Tests used:
[1] = target: Inosine-5'-monophosphate dehydrogenase 2 (Homo sapiens, UniProt P12268); assay: Inhibition of human IMPDH type 2
[2] = Inhibition of horse liver alcohol dehydrogenase; parameters: species or system Equus caballus
[3] = target: Malate dehydrogenase (Sus scrofa); assay: Inhibition of porcine heart malate dehydrogenase
[4] = target: L-lactate dehydrogenase (Bos taurus); assay: Inhibition of bovine heart lactate dehydrogenase
[5] = target: Inosine-5'-monophosphate dehydrogenase 1 (Homo sapiens, UniProt P20839); assay: Inhibition of human IMPDH type 1
[6] = system: K562; assay: Antiproliferative activity against human K562 cells after 72 hrs; type: functional, cell-based; settings: K562, 72 h

Sequence of Inosine-5'-monophosphate dehydrogenase 1 (P20839 whole entry): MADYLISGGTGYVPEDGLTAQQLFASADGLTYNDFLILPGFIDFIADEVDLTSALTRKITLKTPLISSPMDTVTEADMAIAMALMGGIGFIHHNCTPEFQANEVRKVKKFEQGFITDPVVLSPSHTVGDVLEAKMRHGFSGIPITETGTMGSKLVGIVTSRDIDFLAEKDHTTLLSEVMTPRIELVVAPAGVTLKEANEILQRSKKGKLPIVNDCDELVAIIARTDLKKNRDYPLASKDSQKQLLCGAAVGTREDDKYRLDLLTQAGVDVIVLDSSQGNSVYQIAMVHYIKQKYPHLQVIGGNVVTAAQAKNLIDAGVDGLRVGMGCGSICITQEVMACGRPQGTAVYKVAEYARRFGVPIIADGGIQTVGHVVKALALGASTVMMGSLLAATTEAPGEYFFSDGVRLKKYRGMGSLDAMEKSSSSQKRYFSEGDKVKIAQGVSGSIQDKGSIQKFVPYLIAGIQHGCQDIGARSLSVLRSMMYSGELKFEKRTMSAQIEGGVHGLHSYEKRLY

| SMILES | Ki [1] | IC50 [2] | IC50 [3] | IC50 [4] | Ki [5] | IC50 [6] |
| --- | --- | --- | --- | --- | --- | --- |
| NC(=O)c1csc([C@@H]2O[C@H](COP(=O)(O)OP(=O)(O)OC[C@H]3O[C@@H](n4cnc5c(N)nc(NCc6ccccc6)nc54)[C@H](O)[C@@H]3O)[C@@H](O)[C@H]2O)n1 | 169 nM | – | 30000 nM | > 50000 nM | 45 nM | – |
| NC(=O)c1csc([C@@H]2O[C@H](COP(=O)(O)OP(=O)(O)OC[C@H]3O[C@@H](n4cnc5c(N)nc(I)nc54)[C@H](O)[C@@H]3O)[C@@H](O)[C@H]2O)n1 | 84 nM | – | > 50000 nM | > 50000 nM | 19 nM | – |
| NC(=O)c1csc([C@@H]2O[C@H](COP(=O)(O)OP(=O)(O)OC[C@H]3O[C@@H](n4cnc5c(N)nc(N)nc54)[C@H](O)[C@@H]3O)[C@@H](O)[C@H]2O)n1 | – | > 50000 nM | > 50000 nM | > 50000 nM | 7 nM | – |
| COc1c(C)c2c(c(O)c1CCOP(=O)(O)CP(=O)(O)OC[C@H]1O[C@@H](n3cnc4c(N)nc(-c5ccccc5)nc43)[C@H](O)[C@@H]1O)C(=O)OC2 | 108 nM | > 50000 nM | 14300 nM | > 50000 nM | 66 nM | 1100 nM |
| NC(=O)c1csc([C@@H]2O[C@H](COP(=O)(O)OP(=O)(O)OC[C@H]3O[C@@H](n4cnc5c(N)nc(NCCc6ccccc6)nc54)[C@H](O)[C@@H]3O)[C@@H](O)[C@H]2O)n1 | 255 nM | – | 12700 nM | > 50000 nM | 73 nM | – |
| C=Cc1nc(N)c2ncn([C@@H]3O[C@H](COP(=O)(O)OP(=O)(O)OC[C@H]4O[C@@H](c5nc(C(N)=O)cs5)[C@H](O)[C@@H]4O)[C@@H](O)[C@H]3O)c2n1 | 94 nM | 39000 nM | > 50000 nM | > 50000 nM | 96 nM | – |
| NC(=O)c1csc([C@@H]2O[C@H](COP(=O)(O)OP(=O)(O)OC[C@H]3O[C@@H](n4cnc5c(N)ncnc54)[C@H](O)[C@@H]3O)[C@@H](O)[C@H]2O)n1 [TIAZOFURIN ADENINE DINUCLEOTIDE] | – | – | – | – | – | 12400 nM |

Other lines, results leading:

| Ki [1] | IC50 [2] | IC50 [3] | IC50 [4] | Ki [5] | IC50 [6] | SMILES |
| --- | --- | --- | --- | --- | --- | --- |
| 49 nM | > 50000 nM | > 50000 nM | > 50000 nM | 10 nM | – | C#Cc1nc(N)c2ncn([C@@H]3O[C@H](COP(=O)(O)OP(=O)(O)OC[C@H]4O[C@@H](c5nc(C(N)=O)cs5)[C@H](O)[C@@H]4O)[C@@H](O)[C@H]3O)c2n1 |
| 143 nM | – | > 50000 nM | > 50000 nM | 20 nM | – | NC(=O)c1csc([C@@H]2O[C@H](COP(=O)(O)OP(=O)(O)OC[C@H]3O[C@@H](n4cnc5c(N)nc(-c6ccccc6)nc54)[C@H](O)[C@@H]3O)[C@@H](O)[C@H]2O)n1 |
| – | > 50000 nM | > 50000 nM | > 50000 nM | 1 nM | – | CCc1nc(N)c2ncn([C@@H]3O[C@H](COP(=O)(O)OP(=O)(O)OC[C@H]4O[C@@H](c5nc(C(N)=O)cs5)[C@H](O)[C@@H]4O)[C@@H](O)[C@H]3O)c2n1 |
| 153 nM | > 50000 nM | > 50000 nM | > 50000 nM | 45 nM | – | NC(=O)c1csc([C@@H]2O[C@H](COP(=O)(O)OP(=O)(O)OC[C@H]3O[C@@H](n4cnc5c(N)nc(Nc6ccccc6)nc54)[C@H](O)[C@@H]3O)[C@@H](O)[C@H]2O)n1 |
| – | – | – | – | – | 7700 nM | COc1c(C)c2c(c(O)c1C/C=C(\C)CCC(=O)O)C(=O)OC2 [MYCOPHENOLIC ACID] |
